From ChEMBL document CHEMBL1148027, “Novel glucocorticoids containing a 6,5-bicyclic core fused to a pyrazole ring: synthesis, in vitro profile, molecular modeling studies, and in vivo experiments” (Bioorg Med Chem Lett, 2007)
Blank lines part the entries; values can stand above or below the compound they belong to. Activity calls are given as the source filed them. No cut-off for these calls is given here.

Key:
Mus musculus [1] = assay: Half life in iv dosed mouse; assay type: functional, organism-based
Mus musculus [2] = assay: Antiinflammatory activity in mouse assessed as inhibition of LPS-induced TNFalpha at 30 mg/kg relative to prednisolone; assay type: functional
Mus musculus [3] = assay: Clearance in iv dosed mouse; assay type: functional, organism-based
Mus musculus [4] = assay: Normalized AUC in iv dosed mouse; assay type: functional, organism-based
Mus musculus [5] = assay: Oral bioavailability in mouse; assay type: functional, organism-based
[6] = target: T1, Glucocorticoid receptor (Homo sapiens) (UniProt P04150); assay: Activity at human glucocorticoid receptor in human HepG2 cells assessed as tyrosine amino transferase activity; assay type: cell-based
T1 sequence (whole entry): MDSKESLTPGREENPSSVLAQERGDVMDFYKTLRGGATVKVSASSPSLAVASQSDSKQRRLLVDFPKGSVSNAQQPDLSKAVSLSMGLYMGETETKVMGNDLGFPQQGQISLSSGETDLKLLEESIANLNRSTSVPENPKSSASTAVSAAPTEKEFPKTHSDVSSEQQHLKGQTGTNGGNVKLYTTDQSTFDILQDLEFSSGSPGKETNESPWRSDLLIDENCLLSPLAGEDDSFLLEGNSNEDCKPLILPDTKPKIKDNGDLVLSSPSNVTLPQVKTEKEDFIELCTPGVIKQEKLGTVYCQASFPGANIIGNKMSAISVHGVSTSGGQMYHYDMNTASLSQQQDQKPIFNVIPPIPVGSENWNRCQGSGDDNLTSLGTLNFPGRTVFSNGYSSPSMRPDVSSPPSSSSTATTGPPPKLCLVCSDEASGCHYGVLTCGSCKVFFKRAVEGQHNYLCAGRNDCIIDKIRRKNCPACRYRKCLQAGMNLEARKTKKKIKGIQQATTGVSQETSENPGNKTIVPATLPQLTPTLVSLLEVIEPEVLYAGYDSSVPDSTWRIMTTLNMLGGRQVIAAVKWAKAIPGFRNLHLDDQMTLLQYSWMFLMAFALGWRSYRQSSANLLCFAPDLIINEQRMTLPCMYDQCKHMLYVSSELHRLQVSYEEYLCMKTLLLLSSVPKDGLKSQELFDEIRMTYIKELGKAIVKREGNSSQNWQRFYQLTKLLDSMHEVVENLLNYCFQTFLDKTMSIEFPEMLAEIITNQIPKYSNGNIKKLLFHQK

[7] = Displacement of [3H]dexamethasone from human glucocorticoid receptor alpha
[8] = target: T1, Glucocorticoid receptor (Homo sapiens); assay: (§1) Activity at human glucocorticoid receptor in human A549 cells assessed as repression of human IL6; assay type: cell-based
Glucocorticoid receptor = target: T2, Glucocorticoid receptor (Homo sapiens, UniProt P04150); assay: as §1; assay type: cell-based
T2 sequence (P04150 whole entry): T1 sequence (whole entry)

[9] = target: Glucocorticoid receptor (Mus musculus) (UniProt P06537); assay: Activity at mouse glucocorticoid receptor in C2C12 cells assessed as mouse glutamine synthetase activity
Mus musculus [10] = organism: Mus musculus; assay: animal or person; conditions: read-out: Inhibition
Mus musculus [11] = assay: Antiinflammatory activity in mouse assessed as inhibition of LPS-induced TNFalpha at 3 mg/kg; assay type: functional; parameters: scale not given: the % may be the effect or the level left

Glucocorticoid receptor (Mus musculus), sequence (P06537 whole entry, looked up): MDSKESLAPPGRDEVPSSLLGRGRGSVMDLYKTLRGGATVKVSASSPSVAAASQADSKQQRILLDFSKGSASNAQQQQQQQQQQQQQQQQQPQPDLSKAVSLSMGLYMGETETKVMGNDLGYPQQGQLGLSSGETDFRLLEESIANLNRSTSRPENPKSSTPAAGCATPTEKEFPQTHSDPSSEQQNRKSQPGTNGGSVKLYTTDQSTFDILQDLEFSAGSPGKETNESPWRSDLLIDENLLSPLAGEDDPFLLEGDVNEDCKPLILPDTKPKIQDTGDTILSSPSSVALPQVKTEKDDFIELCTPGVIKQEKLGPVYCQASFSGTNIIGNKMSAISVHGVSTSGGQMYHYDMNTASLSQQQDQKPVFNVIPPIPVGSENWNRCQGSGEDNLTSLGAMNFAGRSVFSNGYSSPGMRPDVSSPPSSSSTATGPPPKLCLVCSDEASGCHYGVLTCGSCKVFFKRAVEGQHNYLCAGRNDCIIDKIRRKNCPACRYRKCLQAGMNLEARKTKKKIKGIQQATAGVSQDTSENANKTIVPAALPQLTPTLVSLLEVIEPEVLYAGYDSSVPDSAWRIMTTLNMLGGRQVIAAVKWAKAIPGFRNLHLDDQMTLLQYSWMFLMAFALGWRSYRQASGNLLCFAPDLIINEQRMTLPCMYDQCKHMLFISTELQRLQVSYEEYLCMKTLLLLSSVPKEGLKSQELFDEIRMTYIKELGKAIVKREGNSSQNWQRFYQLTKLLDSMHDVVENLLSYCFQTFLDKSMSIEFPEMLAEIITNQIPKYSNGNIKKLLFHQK

Compound: C[C@]12Cc3cnn(-c4ccc(F)cc4)c3C=C1CC[C@@H]2[C@H](O)c1csc2ccccc12
T1/2 (Mus musculus [1]): 7.8 h | inhibition in vivo at 30 mg/kg (Mus musculus [2]): 103% | CL (mL.min-1.kg-1) (Mus musculus [3]): 22.3 | AUC (Mus musculus [4]): 1.7 µM·h/mg/kg | bioavailability (Mus musculus [5]): 34%

Activity [6]: inactive | IC50 [7]: 689 nM | Activity [8]: inactive
Compound: C[C@]12Cc3cnn(-c4ccc(F)cc4)c3C=C1CC[C@@H]2[C@H](O)c1cc2ccccc2s1

Compound: C[C@]12Cc3cnn(-c4ccc(F)cc4)c3C=C1CC[C@@H]2[C@@H](O)c1csc2ccccc12
inhibition in vivo at 30 mg/kg (Mus musculus [2]): 113%

IC50 [7]: 5.1 nM | EC50 (Glucocorticoid receptor): 1 nM
Compound: C[C@]12Cc3cnn(-c4ccc(F)cc4)c3C=C1CCC[C@@H]2[C@@H](O)c1ccsc1

Activity [6]: inactive | Activity [9]: inactive | IC50 [7]: 69.1 nM
Compound: C[C@]12Cc3cnn(-c4ccc(F)cc4)c3C=C1CC[C@@H]2[C@@H](O)c1cc2ccccc2s1

IC50 [7]: 5.1 nM
Compound: C[C@]12Cc3cnn(-c4ccc(F)cc4)c3C=C1CCC[C@@H]2[C@@H](O)c1csc2ccccc12

Activity [6]: inactive | Activity [9]: inactive | IC50 [7]: 198 nM
Compound: C[C@]12Cc3cnn(-c4ccc(F)cc4)c3C=C1CC[C@@H]2[C@H](O)c1ccc2ccccc2c1

EC50 [9]: 3 nM | IC50 [7]: 1.5 nM
Compound: C[C@]12Cc3cnn(-c4ccc(F)cc4)c3C=C1CCC[C@@H]2[C@H](O)c1csc2ccccc12

Activity [6]: inactive | Activity [9]: inactive | IC50 [7]: 86 nM
Compound: C[C@]12Cc3cnn(-c4ccc(F)cc4)c3C=C1CC[C@@H]2[C@@H](O)c1ccc2ccccc2c1

Compound: C[C@]12C=CC(=O)C=C1CC[C@@H]1[C@@H]2[C@@H](O)C[C@@]2(C)[C@H]1CC[C@]2(O)C(=O)CO [PREDNISOLONE]
inhibition in vivo at 3 mg/kg (Mus musculus [10]): 100% | Activity (Mus musculus [11]): 71%

Compound: C[C@]12Cc3cnn(-c4ccc(F)cc4)c3C=C1CCC[C@@H]2[C@@H](O)c1cc2ccccc2s1
EC50 [9]: 1210 nM
